Tests used:
Type in all cases: functional, cell-based
A549 = experiment: Cytotoxicity against human A549 cells after 48 hrs by MTT assay; settings: A549, 48 h
MDA-MB-231 = experiment: Cytotoxicity against human MDA-MB-231 cells after 48 hrs by MTT assay; settings: MDA-MB-231, 48 h
HeLa = experiment: Cytotoxicity against human HeLa cells after 48 hrs by MTT assay
HepG2 = experiment: Cytotoxicity against human HepG2 cells after 48 hrs by MTT assay; settings: HepG2, 48 h

| SMILES | IC50 (A549) | IC50 (MDA-MB-231) | IC50 (HeLa) | IC50 (HepG2) |
| --- | --- | --- | --- | --- |
| COC(=O)[C@@]1(O)c2c(oc3cc(C)cc(O)c3c2=O)O[C@@H]1CCO [CONIOFUROL A] | > 120 µM | > 120 µM | > 120 µM | > 120 µM |
| COC(=O)[C@@H]1c2c(oc3cc(CO)cc(O)c3c2=O)OC=C[C@@H]1O [CONIOXEPINOL B] | > 120 µM | > 120 µM | 36.2 µM | > 120 µM |
| COC(=O)[C@@H]1c2c(oc3cc(C)cc(O)c3c2=O)OC=C[C@@H]1O [CONIOXEPINOL A] | > 120 µM | > 120 µM | 104 µM | > 120 µM |
| O=c1[nH]cc(F)c(=O)[nH]1 [FLUOROURACIL] | – | – | 10 µM | – |
| COC(=O)[C@]12Oc3cc(C)cc(O)c3C(=O)C1=C(O)OC=C[C@H]2O [CONIOXEPINOL D] | 40.9 µM | 41.4 µM | > 120 µM | > 120 µM |
| COC(=O)[C@@]1(O)c2c(oc3cc(C)cc(O)c3c2=O)OC=C[C@@H]1O [CONIOXEPINOL C] | 83.6 µM | 112 µM | > 120 µM | > 120 µM |

— ChEMBL document CHEMBL1157742, “Oxepinochromenones, furochromenone, and their putative precursors from the endolichenic fungus Coniochaeta sp” (J Nat Prod, 2010)
